Reference: patent US12378224B2 (Dong-A Socio Holdings Co., Ltd., priority 2016, dated 2025)

Target: human c-MER catalytic domain (Homo sapiens (Human), UniProt Q12866)
Assay: TR-FRET Kinase Activity Biochemical Assay (LanthaScreen)
Conditions: 10 uM ATP, 1 hour, kinase not given
Procedure, shortened: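 Recombinant human c-MER catalytic domain phosphorylated fluorescein-labeled poly-GT substrate. The reaction was stopped with 10 mM EDTA, then 2 nM Tb-labeled anti-phosphotyrosine antibody was added for 30 min. Kinase activity was taken from the 495/520 nm TR-FRET emission ratio after 340 nm excitation.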

Chain of human c-MER catalytic domain (Q12866 587-858): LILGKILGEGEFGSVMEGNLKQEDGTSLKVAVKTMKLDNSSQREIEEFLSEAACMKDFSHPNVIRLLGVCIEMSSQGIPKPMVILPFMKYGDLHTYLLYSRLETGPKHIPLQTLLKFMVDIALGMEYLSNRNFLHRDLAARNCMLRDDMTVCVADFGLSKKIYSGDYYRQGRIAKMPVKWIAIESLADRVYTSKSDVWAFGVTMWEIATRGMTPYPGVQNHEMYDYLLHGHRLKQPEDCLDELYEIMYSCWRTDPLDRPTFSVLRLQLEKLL

`Cn1cc(-c2cnc3[nH]nc(N[C@@H]4CCN(C(=O)c5ccc(-c6ccccc6)cc5)C4)c3c2)cn1` [Example 616, (R)-[1,1′-biphenyl]-4-yl(3-((5-(1-methyl-1H-pyrazol-4-yl)-1H-pyrazolo[3,4-b]pyridin-3-yl)amino)pyrrolidin-1-yl)methanone] was tested. Which IC50 did it give?
Its IC50 is 100 to 1000 nM.

With `CN(C)CCOc1ccc2cc(OC(=O)N3CC[C@@H](NC(=O)c4cc(-c5cnn(C)c5)cnc4N)C3)ccc2c1` [Example 300, 6-(2-(dimethylamino)ethoxy)naphthalen-2-yl (R)-3-(2-amino-5-(1-methyl-1H-pyrazol-4-yl)nicotinamido)pyrrolidine-1-carboxylate] as the molecule, how does the IC50 read?
The IC50 was 100 to 1000 nM.

Which IC50 does the source give for `Cn1cc(-c2cnc(N)c(C(=O)N[C@@H]3CCN(C(=O)Oc4ccc5ccc(O)cc5c4)C3)c2)cn1` [Example 95, 7-hydroxynaphthalen-2-yl (R)-3-(2-amino-5-(1-methyl-1H-pyrazol-4-yl)nicotinamido)pyrrolidine-1-carboxylate] here?
Its IC50 is 100 to 1000 nM.

With `Cc1ccc(-c2ccc(C(=O)N3CC[C@@H](NC(=O)c4cc(-c5cnn(C)c5)cnc4N)C3)cc2C)s1` [Example 536, (R)-2-amino-5-(1-methyl-1H-pyrazol-4-yl)-N-(1-(3-methyl-4-(5-methylthiophen-2-yl)benzoyl)pyrrolidin-3-yl)nicotinamide] as the molecule, how does the IC50 read?
Its IC50 is 10 to 100 nM.

How did the IC50 turn out when `Cn1cc(-c2cnc3[nH]nc(N[C@@H]4CCN(C(=O)c5ccc(-c6ccc(Oc7ccc(N)cc7)cc6)cc5)C4)c3c2)cn1` [Example 620, (R)-(4′-(4-aminophenoxy)-[1,1′-biphenyl]-4-yl)(3-((5-(1-methyl-1H-pyrazol-4-yl)-1H-pyrazolo[3,4-b]pyridin-3-yl)amino)pyrrolidin-1-yl)methanone] was run?
Its IC50 is 100 to 1000 nM.

With `CN(C)CCCOc1ccc2ccc(OC(=O)N3CC[C@@H](NC(=O)c4cc(-c5cnn(C)c5)cnc4N)C3)cc2c1` [Example 295, 7-(3-(dimethylamino)propoxy)naphthalen-2-yl (R)-3-(2-amino-5-(1-methyl-1H-pyrazol-4-yl)nicotinamido)pyrrolidine-1-carboxylate] as the molecule, how does the IC50 read?
The IC50 was 10 to 100 nM.

Which IC50 does the source give for `CN(C)CCOc1ccc2ccc(OC(=O)N3CC[C@@H](NC(=O)c4cc(-c5cnn(C)c5)cnc4N)C3)cc2c1` [Example 296, 7-(2-(dimethylamino)ethoxy)naphthalen-2-yl (R)-3-(2-amino-5-(1-methyl-1H-pyrazol-4-yl)nicotinamido)pyrrolidine-1-carboxylate] here?
Its IC50 is 10 to 100 nM.

For `Cn1cc(-c2cnc(N)c(C(=O)N[C@@H]3CCN(C(=O)Nc4cccc(Br)c4)C3)c2)cn1` [Example 24, (R)-2-amino-N-(1-((3-bromophenyl)carbamoyl)pyrrolidin-3-yl)-5-(1-methyl-1H-pyrazol-4-yl)nicotinamide], which IC50 is on record?
Its IC50 is 100 to 1000 nM.

For `CC(O)c1ccc(-c2ccc(C(=O)N3CC[C@@H](NC(=O)c4cc(-c5cnn(C)c5)cnc4N)C3)cc2)s1` (stereo partly drawn) [Example 542, 2-amino-N-((3R)-1-(4-(5-(1-hydroxyethyl)thiophen-2-yl)benzoyl)pyrrolidin-3-yl)-5-(1-methyl-1H-pyrazol-4-yl)nicotinamide], which IC50 is on record?
The IC50 was 100 to 1000 nM.

`Cn1cc(-c2cnc(N)c(C(=O)N[C@@H]3CCN(C(=O)c4ccc(-c5cccnc5)cc4)C3)c2)cn1` [Example 356, (R)-2-amino-5-(1-methyl-1H-pyrazol-4-yl)-N-(1-(4-(pyridin-3-yl)benzoyl)pyrrolidin-3-yl)nicotinamide] was tested. Which IC50 did it give?
Its IC50 is 100 to 1000 nM.

How did the IC50 turn out when `CN(C)c1ccc(-c2ccc(C(=O)N3CC[C@@H](NC(=O)c4cc(-c5cnn(C)c5)cnc4N)C3)cc2)cc1` [Example 379, (R)-2-amino-N-(1-(4′-(dimethylamino)-[1,1′-biphenyl]-4-carbonyl)pyrrolidin-3-yl)-5-(1-methyl-1H-pyrazol-4-yl)nicotinamide] was run?
Its IC50 is 10 to 100 nM.

For `CN1CCN(Cc2ccc(-c3cnc(N)c(C(=O)N[C@@H]4CCN(C(=O)Oc5cccc(-c6ccccc6)c5)C4)c3)cc2)CC1` [Example 82, [1,1′-biphenyl]-3-yl (R)-3-(2-amino-5-(4-((4-methylpiperazin-1-yl)methyl)phenyl)nicotinamido)pyrrolidine-1-carboxylate], which IC50 is on record?
The IC50 was 10 to 100 nM.

How did the IC50 turn out when `Cn1cc(-c2cnc(N)c(C(=O)N[C@@H]3CCN(C(=O)c4ccc(-c5ccc(Nc6ccc(N)cc6)cc5)cc4)C3)c2)cn1` [Example 815, (R)-2-amino-N-(1-(4′-((4-aminophenyl)amino)-[1,1′-biphenyl]-4-carbonyl)pyrrolidin-3-yl)-5-(1-methyl-1H-pyrazol-4-yl)nicotinamide] was run?
The IC50 was 10 to 100 nM.

`Nc1ncc(-c2ccc(CN3CCOCC3)cc2)cc1C(=O)N[C@@H]1CCN(C(=O)c2ccc(-c3ccccc3)cc2)C1` [Example 569, (R)—N-(1-([1,1′-biphenyl]-4-carbonyl)pyrrolidin-3-yl)-2-amino-5-(4-(morpholinomethyl)phenyl)nicotinamide] was tested. Which IC50 did it give?
The IC50 was 10 to 100 nM.

`Cn1cc(-c2cnc(N)c(C(=O)N[C@@H]3CCN(C(=O)Oc4ccccc4N)C3)c2)cn1` [Example 70, 2-aminophenyl (R)-3-(2-amino-5-(1-methyl-1H-pyrazol-4-yl)nicotinamido)pyrrolidine-1-carboxylate] was tested. Which IC50 did it give?
The IC50 was > 1000 nM.

With `Cn1cc(-c2cnc(N)c(C(=O)N[C@@H]3CCN(C(=O)OC4CCN(c5ccccc5)C4)C3)c2)cn1` (stereo partly drawn) [Example 126, 1-phenylpyrrolidin-3-yl (3R)-3-(2-amino-5-(1-methyl-1H-pyrazol-4-yl)nicotinamido)pyrrolidine-1-carboxylate] as the molecule, how does the IC50 read?
The IC50 was > 1000 nM.

With `Cc1nn(C)c(C(F)(F)F)c1-c1ccc(C(=O)N2CC[C@@H](NC(=O)c3cc(-c4cnn(C)c4)cnc3N)C2)cc1` [Example 521, (R)-2-amino-N-(1-(4-(1,3-dimethyl-5-(trifluoromethyl)-1H-pyrazol-4-yl)benzoyl)pyrrolidin-3-yl)-5-(1-methyl-1H-pyrazol-4-yl)nicotinamide] as the molecule, how does the IC50 read?
The IC50 was 100 to 1000 nM.

For `C[C@H]1CCCC[C@H]1OC(=O)N1CC[C@@H](NC(=O)c2cc(-c3cnn(C)c3)cnc2N)C1` [Example 108, (1R,2S)-2-methylcyclohexyl (R)-3-(2-amino-5-(1-methyl-1H-pyrazol-4-yl)nicotinamido)pyrrolidine-1-carboxylate], which IC50 is on record?
Its IC50 is > 1000 nM.

With `Cn1cc(-c2cnc(N)c(C(=O)NC3(CO)CCN(C(=O)c4cccc(-c5ccccc5)c4)C3)c2)cn1` (stereo not drawn) [Example 672, N-(1-([1,1′-biphenyl]-3-carbonyl)-3-(hydroxymethyl)pyrrolidin-3-yl)-2-amino-5-(1-methyl-1H-pyrazol-4-yl)nicotinamide] as the molecule, how does the IC50 read?
Its IC50 is > 1000 nM.

Which IC50 does the source give for `Cn1cc(-c2cnc(N)c(C(=O)N[C@@H]3CCN(C(=O)c4ccc(-c5ccc(Oc6ccc(N)cc6)cc5F)cc4)C3)c2)cn1` [Example 533, (R)-2-amino-N-(1-(4′-(4-aminophenoxy)-2′-fluoro-[1,1′-biphenyl]-4-carbonyl)pyrrolidin-3-yl)-5-(1-methyl-1H-pyrazol-4-yl)nicotinamide] here?
The IC50 was 10 to 100 nM.

For `Cn1cc(-c2cnc(N)c(C(=O)N[C@@H]3CCN(C(=O)Nc4cccc(Cl)c4Cl)C3)c2)cn1` [Example 15, (R)-2-amino-N-(1-((2,3-dichlorophenyl)carbamoyl)pyrrolidin-3-yl)-5-(1-methyl-1H-pyrazol-4-yl)nicotinamide], which IC50 is on record?
Its IC50 is 10 to 100 nM.

Which IC50 does the source give for `Nc1ncc(-c2ccc(C(=O)N3CCOCC3)cc2)cc1C(=O)N[C@@H]1CCN(Cc2ccc(Cl)cc2)C1` [Example 235, (R)-2-amino-N-(1-(4-chlorobenzyl)pyrrolidin-3-yl)-5-(4-(morpholine-4-carbonyl)phenyl)nicotinamide] here?
The IC50 was 100 to 1000 nM.

For `COc1ccsc1-c1ccc(C(=O)N2CC[C@@H](NC(=O)c3cc(-c4cnn(C)c4)cnc3N)C2)cc1` [Example 524, (R)-2-amino-N-(1-(4-(3-methoxythiophen-2-yl)benzoyl)pyrrolidin-3-yl)-5-(1-methyl-1H-pyrazol-4-yl)nicotinamide], which IC50 is on record?
The IC50 was 10 to 100 nM.

How did the IC50 turn out when `CCOC(=O)C1CN(C(=O)c2ccc(-c3ccc(F)cc3Cl)cc2)CC1NC(=O)c1cc(-c2cnn(C)c2)cnc1N` (stereo not drawn) [Example 690, ethyl 4-(2-amino-5-(1-methyl-1H-pyrazol-4-yl)nicotinamido)-1-(2′-chloro-4′-fluoro-[1,1′-biphenyl]-4-carbonyl)pyrrolidine-3-carboxylate] was run?
The IC50 was > 1000 nM.

`Cn1cc(-c2cnc(N)c(C(=O)N[C@@H]3CCN(C(=O)c4ccc(-c5ccc(Oc6cccc(N)c6)cc5)cc4)C3)c2)cn1` [Example 530, (R)-2-amino-N-(1-(4′-(3-aminophenoxy)-[1,1′-biphenyl]-4-carbonyl)pyrrolidin-3-yl)-5-(1-methyl-1H-pyrazol-4-yl)nicotinamide] was tested. Which IC50 did it give?
The IC50 was 10 to 100 nM.

`Cn1cc(-c2cnc(N)c(C(=O)N[C@@H]3CCN(C(=O)Cc4cccc(-c5ccccc5)c4)C3)c2)cn1` [Example 423, (R)—N-(1-(2-([1,1′-biphenyl]-3-yl)acetyl)pyrrolidin-3-yl)-2-amino-5-(1-methyl-1H-pyrazol-4-yl)nicotinamide] was tested. Which IC50 did it give?
The IC50 was > 1000 nM.

Which IC50 does the source give for `N#Cc1ccc(-c2cnc(N)c(C(=O)N[C@@H]3CCN(Cc4ccc(Cl)cc4)C3)c2)cc1` [Example 238, (R)-2-amino-N-(1-(4-chlorobenzyl)pyrrolidin-3-yl)-5-(4-cyanophenyl)nicotinamide] here?
Its IC50 is > 1000 nM.

How did the IC50 turn out when `CC(=O)n1ccc2cc(C(=O)N3CC[C@@H](NC(=O)c4cc(-c5cnn(C)c5)cnc4N)C3)ccc21` [Example 513, (R)—N-(1-(1-acetyl-1H-indole-5-carbonyl)pyrrolidin-3-yl)-2-amino-5-(1-methyl-1H-pyrazol-4-yl)nicotinamide] was run?
The IC50 was 100 to 1000 nM.

For `Cn1cc(-c2cnc(N)c(C(=O)N[C@@H]3CCN(C(=O)OC4CCC(c5ccccc5)C4)C3)c2)cn1` (stereo partly drawn) [Example 121, 3-phenylcyclopentyl (3R)-3-(2-amino-5-(1-methyl-1H-pyrazol-4-yl)nicotinamido)pyrrolidine-1-carboxylate], which IC50 is on record?
Its IC50 is 100 to 1000 nM.

With `Cc1noc(C)c1-c1ccc(C(=O)N2CC[C@@H](NC(=O)c3cc(-c4cnn(C)c4)cnc3N)C2)cc1` [Example 539, (R)-2-amino-N-(1-(4-(3,5-dimethylisoxazol-4-yl)benzoyl)pyrrolidin-3-yl)-5-(1-methyl-1H-pyrazol-4-yl)nicotinamide] as the molecule, how does the IC50 read?
The IC50 was 100 to 1000 nM.
